What was measured:
[1] = system: C3H/HeJ mice pups; assay: Pregnancy and postnatal outcomes after in utero exposure; type: in vivo, mouse
From the text: For all animal experiments, C3H/HeJ (10–12 weeks of age, male and female) were purchased from the Jackson Laboratory (Bar Harbor, ME), and were housed in microisolator cages containing autoclaved corncob bedding, and maintained on a 12‐h light‐dark cycle in climate‐controlled laboratory animal facilities approved by the University of Nebraska Medical Center Institutional Animal Care and Use Committee (IACUC). Mice were given free access to irradiated rodent feed (TD. 180,911, Envigo Teklad diet, Madison, WI) and sterile water. Animals were acclimated to the environment for approximately 7–14 days to determine that they were healthy based on observed behavior and weight gain. A female was placed with a male overnight for the purpose of timed matings. The following morning males were removed from the cages and positive vaginal plugs were identified. […] The time of conception was considered to be midnight on the evening of the mating. Treatment of plugged females was started at the morning of the day of plug detection (gestation day (GD) 0.5).
Mice pups at this stage of development (PND 28) are equivalent to humans of 2 years of age. […] Pregnant dams were randomly assigned to DTG or vehicle group. […] Survival rate of pups was 100% between PND 4 and 21 in both groups. Further body weights of pups were measured during preweaning duration. […] Furthermore, between age PND 28 and 34, live animals were evaluated for biochemical changes in the brain by magnetic resonance imaging (MRI) (Fig. 5D–F). All the tests were performed around 6 days post weaning to avoid confounding effect of stress related to separation from mother. Microstructural and metabolite measurements were conducted in live pups using bioimaging methods, diffusion tensor imaging (DTI), and magnetic resonance spectroscopy (^1H MRS), respectively (Fig. 5D–F). First, pups were scanned using DTI to determine microstructural changes in six different brain regions, hippocampus (HI), cortex (CT), striatum (ST), thalamus (TH), hypothalamus (HY), and cerebellum (CE). […] As FA represents anisotropic movement of water molecules along the axons, reduction in FA values indicated axonal and/or myelin damage in developing brain of adolescent pups in the DTG-treated group. […] This allowed evaluation of sex as a biological variant (Supplementary Fig. 4). […] Further, the same pups were scanned using ^1H MRS to measure N-acetylaspartate (NAA), total choline (tCho), and total creatine (tCre) in hippocampus (HI) only (Fig. 5F). NAA is a highly concentrated metabolite in the CNS and is a neuron-specific metabolite that acts as a non-invasive ^1H MRS marker for neuronal integrity, health, and cell number. […] Similar to DTI, sex differences were evaluated in the ^1H MRS study (Supplementary Fig. 5).

[2] = molecular target: MMP-9 (Homo sapiens, UniProt P14780); assay: Fluorometric substrate assay (MMP inhibitor profiling kit); type: biochemical; design: purchased Enzo life sciences BML-AK308
Procedure: (§1) Kit contained a panel of ten MMPs and a quenched fluorogenic substrate OMNIMMP® RED. Composition of a quenched fluorogenic substrate was TQ3-GABA-Pro-Cha-Abu-Smc-His-Ala-Dab(6’-TAMRA)-Ala-Lys-NH2 [TQ3 = quencher; GABA = 4-aminobutyric acid; Cha = L-cyclohexylalanine; Abu = 2-aminobutyric acid; Smc = S-methyl-L-cysteine; Dab = 2,4-diaminobutyric acid; 6’-TAMRA = 6’-tetramethylrhodamine]. Experiment was performed as per instructions provided in the manufacturer’s manual. The assays were performed in a 96-well, black, flat, microplate format. The compound NNGH was provided as a prototypic control inhibitor. […] Untreated MMPs were used as control. The experiment was performed in biological triplicates. After 60-min incubation, fluorogenic substrate OMNIMMP® RED was added to each reaction/well to start the reaction. The plate was continuously read at Ex/Em = 545/576 nm (cutoff at 570 nm) for 30 min with 1-min time intervals at constant temperature, 37 °C, using Molecular Devices SpectraMax M3 plate reader with SoftMax Pro 6.2 software.

[3] = molecular target: T1, MMP-2 (Homo sapiens, UniProt P08253); assay: as above; type: biochemical; design: purchased Enzo life sciences BML-AK308
T1 sequence (P08253 110-660): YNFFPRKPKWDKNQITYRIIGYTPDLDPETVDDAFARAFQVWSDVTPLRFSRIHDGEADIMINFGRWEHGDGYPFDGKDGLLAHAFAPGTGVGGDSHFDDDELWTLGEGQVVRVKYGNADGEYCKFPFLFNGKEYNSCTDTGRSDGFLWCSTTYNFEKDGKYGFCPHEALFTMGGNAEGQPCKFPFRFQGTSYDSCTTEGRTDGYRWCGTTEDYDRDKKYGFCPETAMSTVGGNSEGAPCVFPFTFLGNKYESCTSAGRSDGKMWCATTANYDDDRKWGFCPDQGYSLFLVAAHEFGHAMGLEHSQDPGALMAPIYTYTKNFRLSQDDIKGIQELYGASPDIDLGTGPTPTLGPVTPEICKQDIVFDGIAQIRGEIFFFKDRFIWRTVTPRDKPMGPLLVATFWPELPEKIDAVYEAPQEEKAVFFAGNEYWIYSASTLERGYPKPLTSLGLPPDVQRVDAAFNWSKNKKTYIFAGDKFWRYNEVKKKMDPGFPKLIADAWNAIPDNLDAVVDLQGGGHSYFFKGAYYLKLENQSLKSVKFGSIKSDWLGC
Procedure: as §1

[4] = system: MMP; assay: Broad-spectrum MMP activity in embryonic brain (fluorometric substrate); type: in vivo, mouse; conditions: GD 16.5, dams 50 mg/kg/day oral GD 0.5-15.5, compared to controls
Procedure: Broad-spectrum MMP activity was measured in whole brain tissue homogenates of normal, viable embryos (GD 16.5) using a quenched fluorogenic substrate, OMNIMMP® RED (BML-P277-0100, Enzo Life Sciences). Whole brain tissues were isolated from randomly selected embryos from different dams for both DTG and control groups. Tissues were homogenized in NP-40 lysis buffer using a Qiagen TissueLyzer II (Valencia, CA). Tissue lysates were centrifuged at 16,000 g at 4 °C for 20 min and supernatants were collected. Total protein levels in each sample were quantitated using Pierce™ BCA Protein Assay Kit (Thermo Fisher Scientific, Waltham, MA). The assays were performed in a 96-well, black, flat, microplate format. Fifty micrograms of protein for each sample was incubated with buffer (BML-KI175-0020, Enzo Life Sciences) at 37 °C for 60 min. Each sample was platted in duplicates. Later, reaction was started by adding fluorogenic substrate. Plate was read at similar instructions mentioned above for fluorometric substrate assay. Ilomastat (GM6001; broad-spectrum MMP inhibitor, ab120845, abcam) was added to randomly selected protein samples in additional wells at 20 µM concentration as an assay control.

[5] = dams 50 mg/kg/day oral through entire gestation

Chain of MMP-9 (P14780 94-707): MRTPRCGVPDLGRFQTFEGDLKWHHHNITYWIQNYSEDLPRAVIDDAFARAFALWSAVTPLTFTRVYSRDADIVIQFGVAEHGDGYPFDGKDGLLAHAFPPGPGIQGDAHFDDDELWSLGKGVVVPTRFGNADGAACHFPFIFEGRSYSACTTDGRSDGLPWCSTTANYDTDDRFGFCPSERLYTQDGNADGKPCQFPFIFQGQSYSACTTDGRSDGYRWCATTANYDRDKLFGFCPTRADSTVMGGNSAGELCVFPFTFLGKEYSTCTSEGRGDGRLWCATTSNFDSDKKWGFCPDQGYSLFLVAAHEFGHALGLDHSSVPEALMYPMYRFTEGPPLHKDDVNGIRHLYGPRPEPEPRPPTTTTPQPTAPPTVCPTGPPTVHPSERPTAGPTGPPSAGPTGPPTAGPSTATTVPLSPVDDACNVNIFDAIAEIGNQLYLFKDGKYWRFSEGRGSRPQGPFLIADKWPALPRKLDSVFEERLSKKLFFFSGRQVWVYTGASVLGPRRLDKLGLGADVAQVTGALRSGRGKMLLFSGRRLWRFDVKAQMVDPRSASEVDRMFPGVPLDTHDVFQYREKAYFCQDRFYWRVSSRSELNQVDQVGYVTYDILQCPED

C[C@@H]1CCO[C@H]2Cn3cc(C(=O)NCc4ccc(F)cc4F)c(=O)c(O)c3C(=O)N12 [DTG, Dolutegravir] was tested, and the “Average body weight of pups” value ([1]; PND 12, in utero exposure) was 5.1 ± 0.4 g, the “Average body weight of pups” value ([1]; PND 21, in utero exposure) was 7.5 ± 0.4 g and the “No. of female pups delivered per litter” value [1, 5] was 1.2. The “No. of male pups delivered per litter” value [1, 5] was 2.2, the “No. of pups delivered per litter (average litter size)” value [1, 5] was 3.5 and the “male to female ratio per litter” value [1, 5] was 2.0. The “% pup survival (PND 4 to PND 21)” value ([1]; in utero exposure) was 100%, the “% pup survival (birth to PND 4)” value ([1]; in utero exposure) was 92.8% and the “structural malformations or variations in newborn pups” value ([1]; in utero exposure) was “no structural malformations or variations”. The “inhibitory effect compared to doxycycline” value ([2]; MMP-9, 20 µM) was “higher inhibitory effect”, the IC50 ([2]; human recombinant MMP-9, 60 min preincubation, four-parameter fit) was 11.1 µM and the “inhibitory effect compared to doxycycline” value ([3]; MMP-2, 20 µM) was “higher inhibitory effect”. The IC50 ([3]; human recombinant MMP-2, 60 min preincubation, four-parameter fit) was 16.9 µM and the “Broad-spectrum MMP activity in embryonic brain” value [4] was “significantly inhibited”.
